The record followed here is US9243272B2, “Enzyme preparation containing thermostable DNA polymerase, method for producing same, and method for detecting subject organism to be detected” (HOKKAIDO MITSUI CHEMICALS INC., priority 2009, dated 2016).

The test system of one series is Bacillus cereus. Description: Rapid liquid phase drug sensitivity test, enrichment rate by real-time PCR (e-DNAP, non-display method). The series is classed as cell-based. The following applies: 10 μg/mL; four hours after culture; enrichment rate without antibiotic agent defined as 100%. The method, then: (§1) In current drug sensitivity tests, it generally takes several days to obtain results. However, when the highly sensitive quantification method in accordance with the present invention is applied, results can be obtained in only four to six hours. […] Accordingly, a sensitive test must be started once culture was carried out, so that it takes at least one day to obtain a result. An equal amount of each sample (for example, blood of septicemia) was infused into a liquid medium (BHI: Brain Heart Infusion), each sample medium was collected before culture, two hours after the culture, and four hours after the culture under the condition in which an antibiotic agent was added or not added, cells were subjected to centrifugation and pelletizing so as to obtain DNA, respectively. Furthermore, it is desirable that extraction of DNA is carried out by using an automatic nucleic acid extraction device. A real-time PCR reagent for detecting bacteria, conditions and the primer constitution were the same as in Example 2. When calculation is carried out when the quantification result before culture is defined as 0 and the quantification result two hours after and four hours after culture in which an antibiotic agent was not added is respectively defined as 100 (an enrichment rate when an antibiotic agent was not added is defined as 100%), the enrichment rate was calculated two hours after and four hours after the culture in which an antibiotic agent was added. For example, the amount of bacteria/fungi before culture is […], the amount of bacteria two hours after culture in which an antibiotic agent is not added is […], and the amount two hours after culture in which an antibiotic agent is added is […], the enrichment rate two hours after an antibiotic agent is added can be calculated by the following formula: Enrichment rate two hours after an antibiotic agent is added=[…])×100 (%) Alternatively, instead of comparing the enrichment rates, the amounts […] be compared directly. […]
(In general: Real-time PCR tracks product formation cycle by cycle.)

Series [1] relates to Staphylococcus epidermidis. Description: Rapid liquid phase drug sensitivity test, bacteria quantified by real-time PCR (e-DNAP, non-display method). Type of series: cell-based. The following applies: 10 μg/mL; two hours and four hours after culture. The procedure: as §1, with “An equal amount of each sample (for example, blood of septicemia) was infused into a liquid medium (BHI: Brain Heart Infusion), each sample medium was collected before culture, two hours after the culture, and four hours after the culture under the condition in which an antibiotic agent was added or not added, cells were subjected to centrifugation and pelletizing so as to obtain DNA, respectively. Furthermore, it is desirable that extraction of DNA is carried out by using an automatic nucleic acid extraction device. A real-time PCR reagent for detecting bacteria, conditions and the primer constitution were the same as in Example 2.” left out

For series [2], the system named is bacterial 16S rRNA-derived gene. Description: Amplification curve and melting curve analysis by real-time PCR (contamination of non-specific nucleic acid). On the set-up: species or system Escherichia coli. The following applies: real-time PCR 60 cycles; template not added. The method, then:
In order to investigate contamination of non-specific nucleic acid in the above-mentioned thermostable DNA polymerase preparations, analyses of an amplification curve and a melting curve were carried out by using real-time PCR. FIGS. 5(A) and FIG. 5(B) show analysis of amplification curves. FIGS. 6(A) and FIG. 6(B) show analysis of melting curves. Furthermore, FIG. 5(A) and FIG. 6(A) are graphs showing analysis carried out by using thermostable DNA polymerase preparation produced by using AmpliTaq Gold LD as a host. FIG. 5(B) and FIG. 6(B) are graphs showing analysis carried out by using thermostable DNA polymerase preparation produced by using S. cerevisiae as a host. Solid lines show a case in which Escherichia coli was added as a template, and broken lines show a case in which a template was not added. As the real-time PCR reagent, ×10 Buffer was obtained by adding 10 μl of ultrapure water into a 1b tube of LightCycler FastStart DNA Master SYBR GreenI (Roche). In this tube, dNTPs and SYBR GreenI in addition to a buffer reagent optimized for the Taq DNA polymerase are contained. […]

As for `CC1(C)S[C@@H]2[C@H](NC(=O)[C@H](N)c3ccccc3)C(=O)N2[C@H]1C(=O)O` [ampicillin], the enrichment rate in the series on Bacillus cereus is 0%. Turning to `Cc1nnc(SCC2=C(C(=O)O)N3C(=O)[C@@H](NC(=O)Cn4cnnn4)[C@H]3SC2)s1` [cefazolin], the enrichment rate in the series with Bacillus cereus turned out to be 16%. `CC[C@H]1OC(=O)[C@H](C)[C@@H](O[C@H]2C[C@@](C)(OC)[C@@H](O)[C@H](C)O2)[C@H](C)[C@@H](O[C@@H]2O[C@H](C)C[C@H](N(C)C)[C@H]2O)[C@](C)(O)C[C@@H](C)C(=O)[C@H](C)[C@@H](O)[C@]1(C)O` [erythromycin] registered an enrichment rate in the series with Bacillus cereus of 76%. In addition, the “drug sensitivity (comparison of amount of bacteria itself)” value in series [1] is reported as “sensitivity to EM was observed”. For “AmpliTaq Gold LD: commercial thermostable DNA polymerase preparation (ABI), produced in bacteria and purified to minimize bacterial DNA”, the “contamination of non-specific nucleic acid in amplification curve and melting curve” value in series [2] was “contamination of non-specific nucleic acid was observed”.

In the case of gentamicin, the “drug sensitivity (comparison of amount of bacteria itself)” value in series [1] is given as “sensitivity to GM was not observed”.
